Where two headings read alike, the source gives them in different places. Each block holds one molecule with its values, some of them ahead of it.
Legend:
[1] = target: T1, purified PTP domain of SHP2 (Homo sapiens (Human), UniProt Q06124); experiment: PTPase assay with DiFMUP, SHP2; format: biochemical; details: for IC50: 1 nM enzyme, 20 μM DiFMUP, 37° C., 20 min; for fold difference: SHP2 IC50 relative to CNBCA
[2] = target: T2, purified PTP domain of SHP1 (Homo sapiens (Human), UniProt P29350); experiment: PTPase assay with DiFMUP, SHP1; format: biochemical
T2 sequence (P29350 244-515): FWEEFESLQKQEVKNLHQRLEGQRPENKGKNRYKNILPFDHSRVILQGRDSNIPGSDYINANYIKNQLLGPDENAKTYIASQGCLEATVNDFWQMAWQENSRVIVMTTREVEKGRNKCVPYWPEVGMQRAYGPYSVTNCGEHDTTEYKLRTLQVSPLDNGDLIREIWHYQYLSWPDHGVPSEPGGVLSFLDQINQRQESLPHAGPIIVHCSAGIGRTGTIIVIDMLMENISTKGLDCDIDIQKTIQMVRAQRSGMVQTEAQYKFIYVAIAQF

SHP2 = SHP2 (Homo sapiens (Human), UniProt Q06124); experiment: Enzyme kinetic studies with DiFMUP (Michaelis-Menten, Lineweaver-Burk); format: biochemical; details: for Km: 36.05 in its absence
FL-SHP2 = FL-SHP2 (Homo sapiens (Human), UniProt Q06124); experiment: PTPase assay on FLAG-tagged FL-SHP2 immunoprecipitated from MDA-MB468 cells; format: biochemical; details: 20 μM DiFMUP
[3] = tested on: Akt and ERK1/2 activation in BT474 and MDA-MB468 cells; experiment: Immunoblotting for basal pERK1/2 and pAkt, CNBCA; format: cell-based; details: 48 h
PTP1B = PTP1B (Homo sapiens (Human), UniProt P18031); experiment: CETSA with CNBCA, nontarget PTP1B in breast cancer cell lysates; format: binding; details: 100 μM CNBCA
PTP1B, sequence (P18031 whole entry): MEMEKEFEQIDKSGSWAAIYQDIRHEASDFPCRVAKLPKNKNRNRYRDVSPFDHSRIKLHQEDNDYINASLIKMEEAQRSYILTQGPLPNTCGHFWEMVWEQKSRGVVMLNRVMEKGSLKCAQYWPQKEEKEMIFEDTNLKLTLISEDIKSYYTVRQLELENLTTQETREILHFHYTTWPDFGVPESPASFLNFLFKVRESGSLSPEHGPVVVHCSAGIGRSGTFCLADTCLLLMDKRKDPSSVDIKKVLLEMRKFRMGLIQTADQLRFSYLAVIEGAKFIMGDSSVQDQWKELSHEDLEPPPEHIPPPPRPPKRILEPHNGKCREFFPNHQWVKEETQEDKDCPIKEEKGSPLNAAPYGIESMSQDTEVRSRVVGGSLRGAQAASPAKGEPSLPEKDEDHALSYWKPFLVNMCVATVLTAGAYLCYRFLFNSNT

[4] = tested on: BT474 and MDA-MB468 cells; experiment: Cell growth in 2D culture, CNBCA; format: cell-based; details: 500 nM, 72 h
[5] = tested on: BT474 and MDA-MB468 cells; experiment: Colony formation in soft agar, CNBCA; format: cell-based; details: 500 nM, 10 days
[6] = tested on: BT474 and MDA-MB468 cells; experiment: Mammosphere formation in suspension culture, CNBCA; format: cell-based; details: 500 nM, 10 days
[7] = target: purified PTP domain of PTP1B (Homo sapiens (Human), UniProt P18031); experiment: PTPase assay with DiFMUP, PTP1B; format: biochemical
purified PTP domain of PTP1B, sequence (P18031 3-277): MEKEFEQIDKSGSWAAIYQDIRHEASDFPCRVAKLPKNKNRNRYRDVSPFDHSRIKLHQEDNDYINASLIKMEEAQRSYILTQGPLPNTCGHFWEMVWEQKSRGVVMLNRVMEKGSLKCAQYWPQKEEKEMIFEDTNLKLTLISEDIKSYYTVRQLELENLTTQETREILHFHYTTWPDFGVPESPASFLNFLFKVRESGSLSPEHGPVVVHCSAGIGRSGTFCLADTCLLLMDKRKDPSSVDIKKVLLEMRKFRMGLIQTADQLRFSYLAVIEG

[8] = target: T1, purified PTP domain of SHP2; details: previously reported value; read-out: IC50 SHP2 PTPase activity, parent compound; cited from earlier work
[9] = target: T2, purified PTP domain of SHP1; details: previously reported; cited from earlier work

IC50 [1]: 5.1 µM
fold difference [1]: 5.8
SMILES: CCCCCCCCCOc1ccc(-c2ccc(CC(=O)O)cc2)cc1CCCC(=O)O [CNBBA, 4-(4′-(Carboxymethyl)-4-(nonyloxy)-[1,1′-biphenyl]-3-yl) Butanoic Acid]

IC50 ([2]; 35 μM DiFMUP): 34.6 µM
more selective for SHP2 than for SHP1 ([2]; from IC50 values): 39.77 fold
mechanism of inhibition (SHP2): competitive inhibitor
Km (SHP2; in the presence of 1.0 μM CNBCA): 125 µM
Km (SHP2; in the presence of 2.0 μM CNBCA): 291 µM
IC50 (FL-SHP2): 0.615 µM
better SHP2 IC50 than CNBBA [1]: 5.8 fold
better SHP2 IC50 than the parent compound CNBDA [1]: 5.7 fold
IC50 [1]: 0.87 µM
Selectivity ratio, SHP2 ([1]; SHP2 IC50 as reference): 1.0
fold difference [1]: 1.0
IC50 ([3]; BT474 and MDA-MB468 cells, band density, read-out: approximate IC50, SHP2 mediated Akt and ERK1/2 activation): ~1 µM
nontarget PTP1B remaining in solution, band density (PTP1B; 49° C.): approximately 50%
nontarget PTP1B remaining in solution, band density (PTP1B; 55° C.): 25%
nontarget PTP1B remaining in solution, band density (PTP1B; 58° C.): less than 10%
IC50 ([7]; 10 μM DiFMUP): 25 µM
Selectivity ratio, PTP1B ([7]; PTP1B IC50 over SHP2 IC50): 28.73
SMILES: CCCCCCCCCOc1ccc(-c2ccc(C(=O)O)cc2)cc1CCCC(=O)O [CNBCA, 3′-(3-Carboxypropyl)-4′-(nonyloxy)-[1,1′-biphenyl]-4-carboxylic Acid]
basal pERK1/2 and pAkt levels ([3]; 0.250 to 2.0 μM): downregulation of basal pERK1/2 and pAkt levels by CNBCA treatment in a concentration dependent manner
cell growth in 2D culture [4]: still half-confluent
colony formation in soft agar [5]: fewer and smaller colonies
mammosphere formation [6]: fewer and smaller mammospheres

fold difference [1]: 5.7
SMILES: CCCCCCCCCOc1c(CCCC(=O)O)cc(-c2ccc(C(=O)O)cc2)cc1CCCC(=O)O [CNBDA]
IC50 [8]: 5 µM
selective to SHP2 than to SHP1, parent compound [9]: approximately 25 fold

From US20240199525A1, “SHP2-Targeting Small Molecules For Use As Anti-Cancer Agents” (West Virginia University Board of Governors on behalf of …, priority 2022, published 2024)
